Patent publication US20260297085A1, “1 H-PYRROLO[2,3-B]PYRIDIN-4-YL]-2-OXOPYRROLIDINE-3-CARBONITRILE DERIVATIVES AS TYROSINE KINASE 2 (TYK2) INHIBITORS FOR THE TREATMENT OF INFLAMMATORY DISEASES” (BIOGEN MA INC., priority 2023, published 2026)
Where a name gives a salt, the structure may show the parent alone.

Assays:
[1] = molecular target: JAK1 kinase activity on STAT3 in TF1 cells (Homo sapiens, UniProt P23458); assay: pSTAT3 cell assay (MSD; TF1 cells, 30 ng/mL IL-6 stimulation); format: cell-based; settings: 30 ng/mL IL-6, 15 minutes
Chain of JAK1 kinase activity on STAT3 in TF1 cells (P23458 whole entry): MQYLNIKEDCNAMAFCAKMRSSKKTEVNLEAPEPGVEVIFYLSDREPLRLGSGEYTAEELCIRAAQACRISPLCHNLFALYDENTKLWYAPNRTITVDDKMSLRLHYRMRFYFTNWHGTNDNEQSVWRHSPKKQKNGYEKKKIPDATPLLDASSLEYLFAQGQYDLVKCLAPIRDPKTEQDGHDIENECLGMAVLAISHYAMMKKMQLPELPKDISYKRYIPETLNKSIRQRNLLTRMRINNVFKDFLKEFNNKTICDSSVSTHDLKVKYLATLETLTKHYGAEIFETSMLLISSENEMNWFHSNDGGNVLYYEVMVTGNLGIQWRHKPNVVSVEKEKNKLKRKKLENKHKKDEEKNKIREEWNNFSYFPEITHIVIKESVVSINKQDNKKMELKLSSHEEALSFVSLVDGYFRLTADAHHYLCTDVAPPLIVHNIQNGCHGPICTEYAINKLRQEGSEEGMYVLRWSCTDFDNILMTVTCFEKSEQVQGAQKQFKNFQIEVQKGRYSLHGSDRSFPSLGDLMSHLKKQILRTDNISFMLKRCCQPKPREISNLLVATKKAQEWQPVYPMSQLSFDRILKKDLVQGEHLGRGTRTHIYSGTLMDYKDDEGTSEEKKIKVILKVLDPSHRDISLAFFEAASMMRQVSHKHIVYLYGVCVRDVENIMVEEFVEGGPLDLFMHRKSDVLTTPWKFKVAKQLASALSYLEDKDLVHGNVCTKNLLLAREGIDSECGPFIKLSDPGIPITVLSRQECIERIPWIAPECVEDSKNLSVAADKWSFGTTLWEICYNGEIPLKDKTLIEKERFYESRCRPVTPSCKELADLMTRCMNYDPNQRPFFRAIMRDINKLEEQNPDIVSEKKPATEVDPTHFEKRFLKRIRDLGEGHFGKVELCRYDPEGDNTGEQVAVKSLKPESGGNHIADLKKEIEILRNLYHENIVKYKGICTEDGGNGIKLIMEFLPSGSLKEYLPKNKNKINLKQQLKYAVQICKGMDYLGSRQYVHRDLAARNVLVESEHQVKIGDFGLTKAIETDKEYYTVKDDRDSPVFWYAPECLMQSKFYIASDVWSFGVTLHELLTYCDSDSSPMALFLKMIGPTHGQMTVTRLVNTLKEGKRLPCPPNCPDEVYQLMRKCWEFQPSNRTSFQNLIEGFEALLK
Procedure: The inhibitory potency of compounds of the disclosure against the JAK1 kinase activity on STAT3 was evaluated using an MSD-platform plate-based assay format. TF1 cells natively expressing STAT3 and JAK1 were serum-starved to reduce background phosphorylation levels, then cells were treated with compounds of the disclosure for 1 hour with a 10-point four-fold dilution series starting at 10 μM. Cells were then stimulated with 30 ng/mL interleukin 6 (IL-6) for 15 minutes. Cells were lysed and pSTAT3 levels were quantitated using an MSD plate-based assay with anti-STAT3 antibodies. The data were normalized and the percent activity versus log concentration of compound was fitted with a 4-parameter logistic model to generate IC50 curves.

[2] = molecular target: T1, human JAK3 kinase domain (JH1) (Homo sapiens, UniProt P52333); assay: JH1 biochemical assay for JAK3 (ADP-Glo kinase assay, recombinant JH1 catalytic domain, JAK3-974 peptide, 4 μM ATP)
T1 construct: recombinantly generated catalytic kinase (also known as JH1) domain of human JAK1, JAK2, JAK3 and TYK2
T1 sequence (P52333 822-1111 limits assumed): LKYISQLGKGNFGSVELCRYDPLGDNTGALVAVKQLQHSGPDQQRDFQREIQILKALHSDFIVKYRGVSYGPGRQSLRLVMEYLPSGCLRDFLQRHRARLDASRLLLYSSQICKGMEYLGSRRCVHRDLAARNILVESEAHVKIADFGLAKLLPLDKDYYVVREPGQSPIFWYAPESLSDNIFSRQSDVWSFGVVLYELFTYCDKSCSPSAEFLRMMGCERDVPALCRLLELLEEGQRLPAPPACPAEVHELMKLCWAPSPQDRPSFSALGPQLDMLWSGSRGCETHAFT
In short: (§1)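 Compounds were titrated in 11 points of 3-fold dilution starting at 10 μM or 1 μM. Enzyme (JAK1 4 nM, JAK2 0.2 nM, JAK3 0.3 nM, TYK2 2 nM) and 50 μM peptide reacted for 100 minutes, followed by ADP-to-luminescence detection; IC50 by 4-parameter fit.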

[3] = molecular target: Tyk2 kinase activity on STAT4 in NK92 cells (Homo sapiens, UniProt P29597); assay: pSTAT4 cell assay (MSD; NK92 cells, 30 ng/mL IL2 stimulation); format: cell-based; settings: 30 ng/mL IL2, 15 minutes
Chain of Tyk2 kinase activity on STAT4 in NK92 cells (P29597 whole entry): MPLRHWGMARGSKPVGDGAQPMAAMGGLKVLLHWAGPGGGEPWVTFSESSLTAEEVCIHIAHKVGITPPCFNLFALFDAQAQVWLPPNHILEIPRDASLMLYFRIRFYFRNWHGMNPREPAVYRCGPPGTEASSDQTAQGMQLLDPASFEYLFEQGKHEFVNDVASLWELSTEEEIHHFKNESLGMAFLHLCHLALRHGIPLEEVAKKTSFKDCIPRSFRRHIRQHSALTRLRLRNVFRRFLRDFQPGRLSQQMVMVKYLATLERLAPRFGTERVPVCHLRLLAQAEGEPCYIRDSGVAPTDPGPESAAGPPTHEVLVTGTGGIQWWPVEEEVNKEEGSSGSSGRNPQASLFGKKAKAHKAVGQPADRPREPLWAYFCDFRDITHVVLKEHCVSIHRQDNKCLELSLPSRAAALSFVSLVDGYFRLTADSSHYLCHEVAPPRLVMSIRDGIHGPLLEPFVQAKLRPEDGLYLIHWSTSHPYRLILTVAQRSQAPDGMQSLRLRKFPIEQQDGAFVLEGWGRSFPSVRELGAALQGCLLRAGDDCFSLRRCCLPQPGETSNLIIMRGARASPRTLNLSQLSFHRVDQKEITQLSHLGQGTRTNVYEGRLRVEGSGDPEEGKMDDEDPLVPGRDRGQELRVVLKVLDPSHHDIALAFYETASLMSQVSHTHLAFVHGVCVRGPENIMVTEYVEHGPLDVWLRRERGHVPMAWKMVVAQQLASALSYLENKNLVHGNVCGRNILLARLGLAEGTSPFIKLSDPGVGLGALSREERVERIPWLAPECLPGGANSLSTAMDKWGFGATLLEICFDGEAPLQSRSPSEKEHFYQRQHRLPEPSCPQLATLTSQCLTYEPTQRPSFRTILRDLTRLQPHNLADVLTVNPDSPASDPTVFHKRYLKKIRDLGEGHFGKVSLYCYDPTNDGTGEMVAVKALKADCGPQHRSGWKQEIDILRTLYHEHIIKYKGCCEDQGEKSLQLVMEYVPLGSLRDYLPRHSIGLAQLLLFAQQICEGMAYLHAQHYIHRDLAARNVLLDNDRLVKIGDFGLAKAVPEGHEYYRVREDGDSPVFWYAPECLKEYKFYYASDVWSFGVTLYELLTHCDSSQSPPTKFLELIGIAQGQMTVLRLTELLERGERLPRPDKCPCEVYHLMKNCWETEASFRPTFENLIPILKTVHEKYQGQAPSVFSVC
In short: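 Serum-starved NK92 cells, which natively express Tyk2 and STAT4, were pretreated for 1 h with a 10-point 4-fold dilution series from 10 μM. They were then stimulated with 30 ng/mL IL2 for 15 min. Phospho-STAT in lysates was quantified by MSD with anti-STAT4 antibodies, and IC50 was obtained from 4-parameter logistic fits.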

[4] = molecular target: T2, human JAK1 kinase domain (JH1) (Homo sapiens, UniProt P23458); assay: JH1 biochemical assay for JAK1 (ADP-Glo kinase assay, recombinant JH1 catalytic domain, JAK3-342 peptide, 35 μM ATP)
T2 construct: recombinantly generated catalytic kinase (also known as JH1) domain of human JAK1, JAK2, JAK3 and TYK2
T2 sequence (P23458 875-1153 limits assumed): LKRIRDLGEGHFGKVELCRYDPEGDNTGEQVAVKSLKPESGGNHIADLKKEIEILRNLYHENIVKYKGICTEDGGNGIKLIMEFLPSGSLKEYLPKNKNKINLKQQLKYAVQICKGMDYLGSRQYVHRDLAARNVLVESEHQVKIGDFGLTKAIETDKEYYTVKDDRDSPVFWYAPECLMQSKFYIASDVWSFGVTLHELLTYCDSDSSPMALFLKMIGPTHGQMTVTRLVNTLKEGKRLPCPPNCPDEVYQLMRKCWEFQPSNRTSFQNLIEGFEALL
In short: as §1

[5] = molecular target: T3, human JAK2 kinase domain (JH1) (Homo sapiens, UniProt O60674); assay: JH1 biochemical assay for JAK2 (ADP-Glo kinase assay, recombinant JH1 catalytic domain, JAK3-974 peptide, 15 μM ATP)
T3 construct: recombinantly generated catalytic kinase (also known as JH1) domain of human JAK1, JAK2, JAK3 and TYK2
T3 sequence (O60674 849-1124 limits assumed): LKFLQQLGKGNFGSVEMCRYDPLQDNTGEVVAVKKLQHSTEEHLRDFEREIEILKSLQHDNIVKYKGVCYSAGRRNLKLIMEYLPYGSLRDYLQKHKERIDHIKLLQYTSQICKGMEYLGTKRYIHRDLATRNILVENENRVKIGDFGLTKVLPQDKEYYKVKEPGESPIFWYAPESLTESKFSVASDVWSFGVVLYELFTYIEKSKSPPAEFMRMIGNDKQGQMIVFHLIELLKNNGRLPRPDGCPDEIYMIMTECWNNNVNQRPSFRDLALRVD
In short: as §1

[6] = molecular target: JAK2 kinase activity on STAT5 in TF1 cells (Homo sapiens, UniProt O60674); assay: pSTAT5 cell assay (MSD; TF1 cells, 30 ng/mL IL-3 stimulation); format: cell-based; settings: 30 ng/mL IL-3, 15 minutes
Chain of JAK2 kinase activity on STAT5 in TF1 cells (O60674 whole entry): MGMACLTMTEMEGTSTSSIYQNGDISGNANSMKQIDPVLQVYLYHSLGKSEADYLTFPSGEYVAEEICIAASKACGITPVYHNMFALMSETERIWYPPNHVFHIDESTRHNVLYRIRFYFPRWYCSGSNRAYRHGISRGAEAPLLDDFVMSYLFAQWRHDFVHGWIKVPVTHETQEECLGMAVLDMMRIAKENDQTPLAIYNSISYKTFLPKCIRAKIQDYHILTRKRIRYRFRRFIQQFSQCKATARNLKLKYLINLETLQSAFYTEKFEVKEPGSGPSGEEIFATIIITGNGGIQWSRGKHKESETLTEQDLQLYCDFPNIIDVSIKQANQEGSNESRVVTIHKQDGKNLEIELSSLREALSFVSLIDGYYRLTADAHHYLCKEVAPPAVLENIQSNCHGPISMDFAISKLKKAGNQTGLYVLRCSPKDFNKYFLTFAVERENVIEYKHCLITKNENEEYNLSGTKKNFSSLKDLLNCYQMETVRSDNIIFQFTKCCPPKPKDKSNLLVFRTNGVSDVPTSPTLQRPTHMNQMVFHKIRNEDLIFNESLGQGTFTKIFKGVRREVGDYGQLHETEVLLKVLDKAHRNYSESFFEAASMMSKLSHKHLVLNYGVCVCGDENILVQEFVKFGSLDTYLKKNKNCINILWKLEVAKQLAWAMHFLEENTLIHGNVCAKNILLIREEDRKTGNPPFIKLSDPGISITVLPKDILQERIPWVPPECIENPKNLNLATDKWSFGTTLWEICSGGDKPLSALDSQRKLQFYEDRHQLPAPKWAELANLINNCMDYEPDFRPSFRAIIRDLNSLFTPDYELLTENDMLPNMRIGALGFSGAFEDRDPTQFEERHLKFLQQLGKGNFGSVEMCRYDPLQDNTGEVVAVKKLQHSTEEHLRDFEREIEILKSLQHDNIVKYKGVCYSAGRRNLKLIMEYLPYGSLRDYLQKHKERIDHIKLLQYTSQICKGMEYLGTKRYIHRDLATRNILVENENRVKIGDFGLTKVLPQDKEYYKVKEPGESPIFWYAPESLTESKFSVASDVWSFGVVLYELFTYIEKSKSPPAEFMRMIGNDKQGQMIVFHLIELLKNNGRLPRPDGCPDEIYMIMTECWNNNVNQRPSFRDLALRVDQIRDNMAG
Procedure: The inhibitory potency of compounds of the disclosure against the JAK2 kinase activity on STAT5 was evaluated using an MSD-platform plate-based assay format. TF1 cells natively expressing STAT5 and JAK2 were serum-starved to reduce background phosphorylation levels, then cells were treated with compounds of disclosure for 1 hour with a 10-point four-fold dilution series starting at 10 μM. Cells were then stimulated with 30 ng/mL IL-3 for 15 minutes. Cells were then lysed and pSTAT5 levels were quantitated using an MSD plate-based assay with anti-STAT5 antibodies. The data were normalized and the percent activity versus log concentration of compound was fitted with a 4-parameter logistic model to generate a curve and an IC50 value.

[7] = molecular target: T4, human TYK2 kinase domain (JH1) (Homo sapiens, UniProt P29597); assay: JH1 biochemical assay for TYK2 (ADP-Glo kinase assay, recombinant JH1 catalytic domain, JAK3-974 peptide, 10 μM ATP)
T4 construct: recombinantly generated catalytic kinase (also known as JH1) domain of human JAK1, JAK2, JAK3 and TYK2
T4 sequence (P29597 897-1176 limits assumed): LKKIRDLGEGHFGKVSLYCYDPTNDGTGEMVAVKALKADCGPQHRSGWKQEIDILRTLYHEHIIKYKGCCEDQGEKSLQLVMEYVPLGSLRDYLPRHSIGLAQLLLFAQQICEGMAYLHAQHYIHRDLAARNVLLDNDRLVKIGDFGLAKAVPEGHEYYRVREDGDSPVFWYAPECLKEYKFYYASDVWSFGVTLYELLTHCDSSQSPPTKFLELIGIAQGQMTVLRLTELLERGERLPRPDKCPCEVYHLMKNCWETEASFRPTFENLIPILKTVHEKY
In short: as §1

| SMILES | IC50 [1] [µM] | IC50 ([2]; JAK3 JH1, ADP-Glo) [µM] | IC50 [3] [µM] | IC50 ([4]; JAK1 JH1, ADP-Glo) [µM] | IC50 ([5]; JAK2 JH1, ADP-Glo) [µM] | IC50 [6] [µM] | IC50 ([7]; TYK2 JH1, ADP-Glo) [µM] | IC50 ([2]; JH1 kinase domain, ADP-Glo) [µM] | IC50 ([4]; JH1 kinase domain, ADP-Glo) [µM] | IC50 ([5]; JH1 kinase domain, ADP-Glo) [µM] | IC50 ([7]; JH1 kinase domain, ADP-Glo) [µM] |
| --- | --- | --- | --- | --- | --- | --- | --- | --- | --- | --- | --- |
| C[C@@H]1CN(c2ccnn3cc(-c4cnn(C5(CC#N)CC5)c4)cc23)C(=O)[C@]1(C#N)C1CC1 [Example 323] | 1 to 5 | < 0.1 | 0.05 to 0.1 | < 0.1 | < 0.1 | 1 to 5 | < 0.005 | – | – | – | – |
| C[C@@H]1CN(c2ccnn3cc(-c4c[nH]c5ncccc45)cc23)C(=O)[C@]1(C#N)C1CC1 [Example 72, (3R,4S)-1-(6-(1H-pyrrolo[2,3-b]pyridin-3-yl)pyrrolo[1,2-b]pyridazin-4-yl)-3-cyclopropyl-4-methyl-2-oxopyrrolidine-3-carbonitrile] | 1 to 5 | – | > 0.1 | – | – | 5 to 10 | – | 0.1 to 1 | 0.1 to 1 | 0.1 to 1 | 0.005 to 0.02 |
| C[C@@H]1CN(c2ccnn3cc(-c4ccc(C(F)(F)F)nc4)cc23)C(=O)[C@]1(C#N)C1CC1 [Example 74, (3R,4S)-3-cyclopropyl-4-methyl-2-oxo-1-(6-(6-(trifluoromethyl)pyridin-3-yl)pyrrolo[1,2-b]pyridazin-4-yl)pyrrolidine-3-carbonitrile] | 5 to 10 | – | > 0.1 | – | – | > 10 | – | 0.1 to 1 | 0.1 to 1 | 1 to 5 | 0.005 to 0.02 |
| C[C@@H]1CN(c2nc(-c3ccc(O)nc3)cn3nccc23)C(=O)[C@]1(C#N)C1CC1 [Example 267, (3R,4S)-3-cyclopropyl-1-(6-(6-hydroxypyridin-3-yl)pyrazolo[1,5-a]pyrazin-4-yl)-4-methyl-2-oxopyrrolidine-3-carbonitrile trifluoroacetate] | 0.1 to 1 | < 0.1 | 0.05 to 0.1 | < 0.1 | 0.1 to 1 | 0.1 to 1 | < 0.005 | – | – | – | – |
| C[C@@H]1CN(c2ccnn3cc(-c4ccc(N(C)C)cn4)cc23)C(=O)[C@]1(C#N)C1CC1 [Example 134, (3R,4S)-3-cyclopropyl-1-(6-(5-(dimethylamino)pyridin-2-yl)pyrrolo[1,2-b]pyridazin-4-yl)-4-methyl-2-oxopyrrolidine-3-carbonitrile trifluoroacetate] | 1 to 5 | – | > 0.1 | – | – | 5 to 10 | – | 0.1 to 1 | 0.1 to 1 | 0.1 to 1 | 0.005 to 0.02 |
| CCn1cc(-c2cn3ncc(F)c3c(N3C[C@@H](C)[C@@](C#N)(C4CC4)C3=O)n2)cn1 [Example 188, (3R,4S)-3-cyclopropyl-1-(6-(1-ethyl-1H-pyrazol-4-yl)-3-fluoropyrazolo[1,5-a]pyrazin-4-yl)-4-methyl-2-oxopyrrolidine-3-carbonitrile] | 0.1 to 1 | – | 0.02 to 0.05 | – | – | 1 to 5 | – | < 0.1 | < 0.1 | < 0.1 | < 0.005 |
| COc1ccc(-c2cc3c(N4C[C@@H](C)[C@@](C#N)(C5CC5)C4=O)ccnn3c2)cn1 [Example 48, (3R,4S)-3-cyclopropyl-1-(6-(6-methoxypyridin-3-yl)pyrrolo[1,2-b]pyridazin-4-yl)-4-methyl-2-oxopyrrolidine-3-carbonitrile] | 1 to 5 | – | > 0.1 | – | – | 5 to 10 | – | 0.1 to 1 | 0.1 to 1 | 0.1 to 1 | 0.005 to 0.02 |
| C[C@@H]1CN(c2ccnn3cc(-c4cnn(C5CCN(C)C5)c4)cc23)C(=O)[C@]1(C#N)C1CC1 (stereo partly drawn) [Example 332, (3R,4S)-3-cyclopropyl-4-methyl-1-(6-(1-(1-methylpyrrolidin-3-yl)-1H-pyrazol-4-yl)pyrrolo[1,2-b]pyridazin-4-yl)-2-oxopyrrolidine-3-carbonitrile] | 1 to 5 | < 0.1 | 0.05 to 0.1 | 0.1 to 1 | 0.1 to 1 | 1 to 5 | < 0.005 | – | – | – | – |
| Cc1cc(-c2cc3c(N4C[C@@H](C)[C@@](C#N)(C5CC5)C4=O)ccnn3c2)ccn1 [Example 77, (3R,4S)-3-cyclopropyl-4-methyl-1-(6-(2-methylpyridin-4-yl)pyrrolo[1,2-b]pyridazin-4-yl)-2-oxopyrrolidine-3-carbonitrile] | 0.1 to 1 | – | 0.05 to 0.1 | – | – | 1 to 5 | – | 0.1 to 1 | < 0.1 | 0.1 to 1 | < 0.005 |

More lines, now with the values ahead:

| IC50 [1] [µM] | IC50 ([2]; JAK3 JH1, ADP-Glo) [µM] | IC50 [3] [µM] | IC50 ([4]; JAK1 JH1, ADP-Glo) [µM] | IC50 ([5]; JAK2 JH1, ADP-Glo) [µM] | IC50 [6] [µM] | IC50 ([7]; TYK2 JH1, ADP-Glo) [µM] | IC50 ([2]; JH1 kinase domain, ADP-Glo) [µM] | IC50 ([4]; JH1 kinase domain, ADP-Glo) [µM] | IC50 ([5]; JH1 kinase domain, ADP-Glo) [µM] | IC50 ([7]; JH1 kinase domain, ADP-Glo) [µM] | SMILES |
| --- | --- | --- | --- | --- | --- | --- | --- | --- | --- | --- | --- |
| 1 to 5 | – | 0.05 to 0.1 | – | – | 1 to 5 | – | < 0.1 | < 0.1 | < 0.1 | < 0.005 | Cc1nn(C)cc1-c1cn2nccc2c(N2C[C@@H](C)[C@@](C#N)(C3CC3)C2=O)n1 [Example 208, (3R,4S)-3-cyclopropyl-1-(6-(1,3-dimethyl-1H-pyrazol-4-yl)pyrazolo[1,5-a]pyrazin-4-yl)-4-methyl-2-oxopyrrolidine-3-carbonitrile] |
| 5 to 10 | – | > 0.1 | – | – | > 10 | – | 0.1 to 1 | 0.1 to 1 | 1 to 5 | 0.005 to 0.02 | C[C@@H]1CN(c2ccnn3cc(-c4nc5cnccc5s4)cc23)C(=O)[C@]1(C#N)C1CC1 [Example 102, (3R,4S)-3-cyclopropyl-4-methyl-2-oxo-1-(6-(thiazolo[4,5-c]pyridin-2-yl)pyrrolo[1,2-b]pyridazin-4-yl)pyrrolidine-3-carbonitrile trifluoroacetate] |
| > 10 | – | > 0.1 | – | – | > 10 | – | 0.1 to 1 | 0.1 to 1 | 0.1 to 1 | < 0.005 | C[C@@H]1CN(c2ccnn3cc(-c4cn5c(n4)CCC5)cc23)C(=O)[C@]1(C#N)C1CC1 [Example 106, (3R,4S)-3-cyclopropyl-1-(6-(6,7-dihydro-5H-pyrrolo[1,2-a]imidazol-2-yl)pyrrolo[1,2-b]pyridazin-4-yl)-4-methyl-2-oxopyrrolidine-3-carbonitrile trifluoroacetate] |
| > 10 | 0.1 to 1 | > 0.1 | < 0.1 | 0.1 to 1 | > 10 | < 0.005 | – | – | – | – | C[C@@H]1CN(c2nc(-c3cnc4c(c3)OCC(=O)N4C)cn3nccc23)C(=O)[C@]1(C#N)C1CC1 [Example 235, (3R,4S)-3-cyclopropyl-4-methyl-1-(6-(4-methyl-3-oxo-3,4-dihydro-2H-pyrido[3,2-b][1,4]oxazin-7-yl)pyrazolo[1,5-a]pyrazin-4-yl)-2-oxopyrrolidine-3-carbonitrile trifluoroacetate] |
| > 10 | – | > 0.1 | – | – | > 10 | – | 1 to 5 | 1 to 5 | 1 to 5 | 0.05 to 0.1 | C[C@@H]1CN(c2ncnc3[nH]c(-c4cnn(C)c4)cc23)C(=O)[C@]1(C#N)C1CC1 [Example 6, (3R,4S)-3-cyclopropyl-4-methyl-1-(6-(1-methyl-1H-pyrazol-4-yl)-7H-pyrrolo[2,3-d]pyrimidin-4-yl)-2-oxopyrrolidine-3-carbonitrile] |
| 5 to 10 | 0.1 to 1 | > 0.1 | 0.1 to 1 | 1 to 5 | > 10 | 0.005 to 0.02 | – | – | – | – | C[C@@H]1CN(c2nn(-c3cnn(C(F)F)c3)c3cnccc23)C(=O)[C@]1(C#N)C1CC1 [Example 276, (3R,4S)-3-cyclopropyl-1-(1-(1-(difluoromethyl)-1H-pyrazol-4-yl)-1H-pyrazolo[3,4-c]pyridin-3-yl)-4-methyl-2-oxopyrrolidine-3-carbonitrile] |
